Assay results reported in PubChem BioAssay (NCI).
Several values for one entry are separate records, joined by “and”; a condition that tells them apart may be missing. Identical values can stand only once.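 Values below derive from 48-hour exposures of cells grown in 96-well plates, with endpoints linearly interpolated between the two concentrations bracketing the appropriate inhibition level. Here, GI50 denotes the concentration required for 50% inhibition of growth. The concentration for full growth arrest is given as TGI.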

What was measured:
Assay in all cases: NCI-60 cell line screen, 48 h
[1] = system: SW-620 colon
[2] = system: COLO 205 colon
[3] = system: SR leukemia
[4] = system: MOLT-4 leukemia
[5] = system: NCI-H23 lung
[6] = system: A498 renal
[7] = system: BT-549 breast
[8] = system: SF-295 CNS
[9] = system: UACC-62 melanoma
[10] = system: DU-145 prostate

Structure (SMILES)	TGI [1]	TGI [2]	TGI [3]	TGI [4]	TGI [5]	TGI [6]	TGI [7]	TGI [8]	TGI [9]	TGI [10]	GI50 [3]	GI50 [6]
COc1cc2c3cc1Oc1c(OC)c(OC)cc4c1C(Cc1ccc(O)c(c1)Oc1ccc(cc1)CC3N(C)CC2)CN(C)C4 (configuration not stated)	30 µM	21.6 µM	41.7 µM	54.5 µM	34.9 µM	31.2 µM	30.2 µM	32.7 µM	32.1 µM	60.8 µM		
O=C1c2cccnc2S(=O)(=O)N1c1ccc([N+](=O)[O-])cc1	> 100 µM	> 100 µM	> 100 µM	> 100 µM	> 100 µM	> 100 µM	> 100 µM	> 100 µM	> 100 µM	> 100 µM		
C=C1CC(COc2ccc3c(C)c(C)c(=O)oc3c2C)(c2ccccc2)OC1=O (configuration not stated)	3.5 µM	3.24 µM	> 100 µM	3.05 µM	4.64 µM	12.5 µM	3.17 µM	19.2 µM	3.42 µM	6 µM		
CNC(=S)NNc1ncnc2c1c(-c1ccc(Cl)cc1)cn2-c1ccc(C)cc1	21.7 µM	29.6 µM	> 100 µM	> 100 µM	28.2 µM	49.6 µM	29.2 µM	20 µM	40.7 µM	43.4 µM		
Cn1c2c(c3ccccc31)CCN1C(=O)C34CCCC3CC21S4 (configuration not stated)	> 100 µM	> 100 µM	> 100 µM	> 100 µM	> 100 µM	> 100 µM	> 100 µM	> 100 µM	> 100 µM	> 100 µM		
Cc1cn(CCCCCOC(=O)NC(CCCNC(N)=O)C(=O)O)c(=O)[nH]c1=O (configuration not stated)	> 100 µM	> 100 µM	> 100 µM	> 100 µM	> 100 µM	> 100 µM	> 100 µM	> 100 µM	> 100 µM	> 100 µM		
O=C(OC12CC3CC(CC(C3)C1)C2)c1ccc(NCc2cc(O)ccc2O)cc1	4.92 µM	1.12 µM	0.907 µM	0.451 µM	3.8 µM	4.98 µM	1.71 µM	7.5 µM	3.28 µM	16.7 µM		
O=CN1CCN(C(=O)c2ccco2)C1=S	> 46.5 µM	24.4 µM	9.25 µM	35 µM	40.4 µM	39.7 µM	16.8 µM	51.1 µM	20.7 µM	11.6 µM		
C[N+]1(CCN=C=NC2CCCCC2)CCOCC1	> 100 µM	> 100 µM	> 100 µM	> 100 µM	> 100 µM	> 100 µM	> 100 µM	> 100 µM	> 100 µM	> 100 µM		
COc1ccc(C2Oc3c(OC)cc(CCCO)cc3C2CO)cc1OC (configuration not stated)	> 100 µM	> 100 µM	55.5 µM and > 100 µM	96.7 µM and > 100 µM	> 100 µM	88 µM and > 100 µM	> 100 µM	> 100 µM	> 100 µM	> 100 µM	13.4 µM and > 100 µM	26.1 µM and 73.4 µM
Cn1nc2c(c1N)Cc1c(nn(C)c1N)-c1ccccc1-2	> 100 µM	> 100 µM	> 100 µM	> 100 µM	> 100 µM	> 100 µM	> 100 µM	> 100 µM	> 100 µM	> 100 µM		
CC(C)(C)c1cc(/C=C2/NC(=O)NC2=O)cc(C(C)(C)C)c1O	39.3 µM	28.5 µM	33.2 µM	44.6 µM	30.6 µM	27 µM	27.3 µM	29.1 µM	30.5 µM	30.3 µM		
CC(=O)C1(O)CCC2(O)C3(O)CC=C4CC(O)CCC4(C)C3CC(OC(=O)c3ccc(O)cc3)C12C (configuration not stated)	> 100 µM	> 100 µM	> 100 µM	> 100 µM	> 100 µM	> 100 µM	> 100 µM	> 100 µM	> 100 µM	> 100 µM		
CCOc1ccc(N=Nc2ccc3cc(/C(C)=N/NC(=O)/C(C#N)=C\c4ccc(N(CCC#N)CCC#N)cc4)c(=O)oc3c2)cc1	> 10 µM	> 10 µM	> 10 µM	> 10 µM	> 10 µM	> 10 µM	> 10 µM	> 10 µM	> 10 µM	> 10 µM		
CCC(=O)Nc1ccc(NS(=O)(=O)c2ccc(Cl)cc2)cc1	> 100 µM	> 100 µM	> 100 µM	> 100 µM	> 100 µM	> 100 µM	> 100 µM	> 100 µM	> 100 µM	> 100 µM		
CN(C)CCNc1c([N+](=O)[O-])sc2ccc(Cl)cc12	> 100 µM	> 100 µM	> 100 µM	7.73 µM	> 100 µM	> 100 µM	> 100 µM	> 100 µM	62.7 µM	> 100 µM		
COc1cc2c3c(cc(Cl)nc3c1OC)C(=O)C(=O)N2	> 55.5 µM	51 µM	> 29.6 µM	> 31.2 µM	34.1 µM	30.2 µM	29.8 µM	32.9 µM	18.1 µM	30.8 µM		
O=C1N/N=C\c2ccc(cc2)OCc2cccc(n2)COc2ccc(cc2)/C=N\NC1=O	> 25 µM	> 25 µM	> 25 µM	> 25 µM	> 25 µM	> 25 µM	> 25 µM	> 25 µM	> 25 µM	> 25 µM		
